Test results from article PMC8187944, “Discovery of Potent EGFR Inhibitors With 6-Arylureido-4-anilinoquinazoline Derivatives” (Frontiers in Pharmacology, 2021).
Where two headings read alike, the source gives them in different places.

Key:
A549 cells = test: Anti-proliferative assay, standard CCK-8 method; format: cell-based, human; settings: mean ± SD of at least three independent experiments, read-out: Proliferative inhibition (IC50, μM) A549
From the text: (§1) All reagents and solvents met the criteria of analytical reagents before use. All cancer cell lines (A549, human non-small-cell lung cell line; HT-29, human colonic adenocarcinoma cell line; MCF-7, human breast cancer cell line) were purchased from Stem Cell Bank, Chinese Academy of Sciences. […] ADP-Glo™ kinase assay kits were provided by Promega (Beijing) Biotech Co., Ltd. (Beijing, China). All kinase subtypes were supplied by SignalChem (BC, Canada).
(§2) The designed 4-anilinoquinazoline derivatives were evaluated for their antitumor bioactivities in vitro against three human tumor cell lines (A549, HT-29, and MCF-7) using the standard CCK-8 method. The CCK-8 method is based on WST-8 dye, 2-(2-methoxy-4-nitrophenyl)-3-(4-nitrophenyl)-5-(2,4-disulfophenyl)-2H-tetrazolium. WST-8 can be bio-reduced by dehydrogenases in mitochondria into orange water-soluble formazan products. Briefly, selected cancer cells in the logarithmic growth phase (1 × 10^4) were inoculated in 96-well plates and further cultured in the incubator for 24 h. First, the target compounds were diluted to different concentrations with culture medium with each dilution gradually diluted from the highest concentration solution. Second, the original culture medium was removed after the cells were completely adherent to the wall, and the compounds at various concentrations prepared above were added. In this experiment, a control group and a blank group were set: the former was treated with 0.1% DMSO solution, and the latter was treated with only the culture medium. […] A microplate reader was adopted to record the absorbance at 450 nm, and in this assay, gefitinib, erlotinib, and sorafenib were used as the reference drugs.

HT-29 cells = test: Anti-proliferative assay, standard CCK-8 method; format: cell-based, human; settings: mean ± SD of at least three independent experiments, read-out: Proliferative inhibition (IC50, μM) HT-29
From the text: as §1, §2

MCF-7 cells = test: Anti-proliferative assay, standard CCK-8 method; format: cell-based, human; settings: read-out: Proliferative inhibition (IC50, μM) MCF-7
From the text: as §1, §2

EGFR = target: T1, EGFR (Homo sapiens, UniProt P00533); test: EGFR kinase inhibition, ADP-Glo assay; format: biochemical; settings: ADP-Glo; mean ± SD of at least two independent experiments; read-out: Enzymatic inhibition IC50 (nM) EGFR
T1 construct: 2 μl (50 ng/ml) of EGFR kinase
Description: The EGFR kinase inhibition activities of the target compounds were evaluated by the ADP-Glo™ assay. The ADP-Glo™ kinase detection kit is a luminescence kinase detection approach that detects the amount of ADP produced by the kinase reaction. After ADP is converted into ATP, ATP can be used as the substrate of the luciferase-catalyzed reaction to generate an optical signal, which is positively correlated with kinase activity. […] The above-prepared systems were sealed and incubated at room temperature for 2 h, and 5 μl of ADP-GLO was added to terminate the kinase reaction. Then, the culture plate was sealed and incubated in a thermostatic oscillator for 40 min to fully consume the remaining ATP. The luciferase/luciferin reaction was adopted to determine the newly generated ATP level.

[1] = tested on: A549, HT-29, and MCF-7 cells; test: Anti-proliferative assay, CCK-8, summaries over all three cell lines; format: cell-based; settings: Homo sapiens, span over A549, HT-29 and MCF-7 cells, read-out: IC50 against the selected cell lines
From the text: as §1, §2

[2] = mean ± SD of at least three independent experiments
[3] = Homo sapiens, MCF7, mean ± SD of at least three independent experiments

Compound	IC50 (A549 cells) [µM]	IC50 (HT-29 cells) [µM]	IC50 (MCF-7 cells; [2]) [µM]	IC50 (EGFR) [nM]	IC50 (A549 cells; Homo sapiens) [µM]	IC50 (HT-29 cells; Homo sapiens) [µM]	IC50 (MCF-7 cells; [3]) [µM]	melting point [°C]	IC50 [1] [µM]
1-(4-chloro-3-(trifluoromethyl) phenyl)-3-(4-((2,3-dimethylphenyl) amino)-3,4-dihydroquinazolin-6-yl) urea [Compound 7t]	> 50	48.3 ± 1.9	> 50	728.1 ± 1.65	–	–	–	–	–
O=C(Nc1ccccc1)Nc1ccc2ncnc(Nc3cccc(Br)c3)c2c1 [Compound 7a]	–	–	–	–	5.81 ± 0.84	4.66 ± 0.56	15.9 ± 2.28	250 to 250.9	–
O=C(Nc1ccccc1)Nc1ccc2ncnc(Nc3ccc(F)c(Cl)c3)c2c1 [Compound 7d]	–	–	–	11.8 ± 0.36	38.65 ± 0.21	39.2 ± 2.01	44.2 ± 0.97	233 to 233.7	–
Cc1cccc(Nc2ncnc3ccc(NC(=O)Nc4ccccc4)cc23)c1C [Compound 7h]	–	–	–	19.7 ± 1.87	> 50	> 50	> 50	242.8 to 243.7	> 50
O=C(Nc1ccc(Cl)c(C(F)(F)F)c1)Nc1ccc2ncnc(Nc3ccc(Br)cc3)c2c1 [Compound 7k]	–	–	–	–	2.79 ± 0.44	2.3 ± 0.5	3.54 ± 0.07	269.8 to 271.1	–
COc1ccc(NC(=O)Nc2ccc3ncnc(Nc4cccc(C)c4C)c3c2)cc1 [Compound 7p]	–	–	–	58.1 ± 1.99	9.34 ± 0.73	11.1 ± 0.39	40.2 ± 2.13	241.1 to 242.7	–
COc1ccc(NC(=O)Nc2ccc3ncnc(Nc4ccc(Br)cc4)c3c2)cc1 [Compound 7q]	–	–	–	470.4 ± 1.28	5.21 ± 0.3	36.96 ± 0.17	17.9 ± 0.89	267.1 to 268.2	–
C#Cc1cccc(Nc2ncnc3cc(OCCOC)c(OCCOC)cc23)c1 [Erlotinib, erlotinib, reference compound]	–	–	–	–	23.2 ± 0.51	22.8 ± 1.12	11.4 ± 0.43	–	1.84 to 23.2
CNC(=O)c1cc(Oc2ccc(NC(=O)Nc3ccc(Cl)c(C(F)(F)F)c3)cc2)ccn1 [Sorafenib, sorafenib, reference compound]	–	–	–	–	1.84 ± 0.17	2.27 ± 0.43	3.47 ± 0.39	–	1.84 to 23.2

Continued, in another order:

IC50 (A549 cells) [µM]	IC50 (HT-29 cells) [µM]	IC50 (MCF-7 cells; [2]) [µM]	IC50 (EGFR) [nM]	IC50 (A549 cells; Homo sapiens) [µM]	IC50 (HT-29 cells; Homo sapiens) [µM]	IC50 (MCF-7 cells; [3]) [µM]	melting point [°C]	Compound	IC50 [1] [µM]
2.67 ± 0.76	2.67 ± 1.02	3.11 ± 0.3	–	–	–	–	–	1-(4-chloro-3-(trifluoromethyl) phenyl)-3-(4-((2,3-dimethylphenyl) amino)-3,4-dihydroquinazolin-6-yl) urea [Compound 7n]	–
–	–	–	20.1 ± 2.21	6.16 ± 0.45	5.92 ± 1.04	8.57 ± 0.27	256 to 256.8	O=C(Nc1ccccc1)Nc1ccc2ncnc(Nc3ccc(Br)cc3F)c2c1 [Compound 7c]	–
–	–	–	11.7 ± 0.79	> 50	48.3 ± 0.78	44.3 ± 1.12	252.8 to 253.5	O=C(Nc1ccccc1)Nc1ccc2ncnc(Nc3ccc(F)cc3)c2c1 [Compound 7f]	–
5.6 ± 0.31	2.61 ± 1.25	5.53 ± 0.39	–	–	–	–	–	Cc1ccc(NC2NC=Nc3ccc(NC(=O)Nc4ccc(Cl)c(C(F)(F)F)c4)cc32)cc1 (stereo not drawn) [Compound 7m, 1-(4-chloro-3-(trifluoromethyl)phenyl)-3-(4-(p-tolylamino)-3,4-dihydroquina-zolin-6-yl) urea]	–
–	–	–	123.9 ± 1.09	35.3 ± 0.57	7.83 ± 0.97	33.7 ± 10.1	247.2 to 248.4	Cc1ccc(Nc2ncnc3ccc(NC(=O)Nc4ccc(F)cc4)cc23)cc1 [Compound 7o]	–
–	–	–	59.7 ± 1.31	> 50	48.21 ± 0.23	46.1 ± 1.98	250.2 to 251.8	COc1ccc(NC(=O)Nc2ccc3ncnc(Nc4ccc(F)cc4)c3c2)cc1 [Compound 7r]	–
–	–	–	108 ± 2.64	> 50	46.2 ± 0.57	47.6 ± 0.76	259.5 to 260.1	COc1ccc(NC(=O)Nc2ccc3ncnc(Nc4ccc(C)cc4)c3c2)cc1 [Compound 7s]	–
